The values that follow are results of earlier work, collected in patent US20080286208A1, “Eye treatment” (priority 2001, published 2008).

Molecules are shown by their SMILES. Entries after “also recorded” stand apart in the source; their conditions may differ. Read-outs that look alike come from different tables or passages of the source.

The subject of the data set is eye. The following applies: for Stinging when applied to the eye: applied to the eye in suitable dosage.

For the compound `CN(C)c1ccc(C(=C2C=CC(=[N+](C)C)C=C2)c2c(O)c(S(=O)(=O)[O-])cc3cc(S(=O)(=O)[O-])ccc23)cc1.[Na+]` [Lissamine green], the “Stinging when applied to the eye” value is “without the disadvantages of toxicity and sting potential; also recorded: does not induce stinging; also recorded: does not significantly sting”.

On to `O=C([O-])c1c(Cl)c(Cl)c(Cl)c(Cl)c1-c1c2cc(I)c(=O)c(I)c-2oc2c(I)c([O-])c(I)cc12.[Na+].[Na+]` [rose bengal], for which the “Stinging when applied to the eye” value is “may result in stinging and pain to an extent that can be disabling for hours post instillation; also recorded: may produce dose related stinging; also recorded: has been found to sting”. The “Stinging when applied to the eye” value (listed as Rose bengal) is “has a sting potential”. Also, where the note is “post instillation”, the “Toxicity to the eye” value was “known to be toxic”.
